Assays:
T. reesei Rut-C30 [1] = experiment: Metabolic labelling (35S-methionine): total protein synthesis and secretion in treated T. reesei cultures; type: cell-based, Trichoderma reesei; conditions: percentage of non-treated control cultures, 5 μM A23187, 50 μg/ml BFA or 10 mM DTT; for Total protein secretion rate: TCA insoluble radioactivity in culture supernatant
T. reesei Rut-C30 [2] = experiment: Synthesis and secretion of labelled CBHI (2D gel, phosphorimager) in treated T. reesei cultures; type: cell-based, Trichoderma reesei; conditions: for CBHI synthesis rate / CBHI secretion rate: percentage of non-treated control cultures; for CBHI secretion rate: production into culture medium; for Minimum secretion time of CBHI: untreated cells 11 min
Method: Proteins were metabolically labelled with ^35S-methionine using the methods described in (Pakula et al. 2000). The preparation of the samples and analysis of the labelled proteins were carried out essentially as in (Pakula et al. 2000). The labelling experiment was started after 10 min of addition of DTT or A23187 or after 15 min of addition of BFA. 1 mCi of [^35S]-methionine (Amersham S J 1015, in vivo cell labelling grade, 1000 Ci mmol^−1, 10 μCi μl^−1) was added to a 50 ml aliquot of the cultivation. Untreated cultures were labelled in parallel and in a similar manner. Samples of 2 ml were collected during a time course. Labelled total protein in cell extracts and culture supernatant was measured using scintillation counting of TCA insoluble material in the samples, and labelled specific proteins (e.g. CBHI) were analysed using 2D gel electrophoresis, and the proteins were quantified using a phosphorimager (Molecular Dynamics). The rates of protein synthesis and secretion, and the average synthesis time and minimum secretion time were determined as described in Pakula et al. 2000.
The effect of the treatments on the synthesis of extracellular proteins, specifically, and on their transport was studied using the major cellulase produced by the fungus, cellobiohydrolase I (CBHI), as a model protein. […] The effect of the treatment with the ionophore A23187 on protein transport was less pronounced. Formation of the full pI pattern of CBHI was delayed by 15-20 minutes compared to the control cells, and CBHI with full pattern of the pI forms was secreted into the culture medium but with a delay.
The labelled CBHI from samples of cell extract and culture supernatant at different time points of the labelling experiment was analysed in 2D gels and quantified using a phosphorimager (Molecular Dynamics). Parameters, such as the synthesis and secretion rate of CBHI (the amount of labelled protein produced per time unit) as well as the average synthesis time and the minimum secretion time of CBHI, were determined (for the method see Pakula et al. 2000). The quantification of the labelled CBHI during the labelling experiment is shown in FIG. 3, and the deduced parameters describing the synthesis and secretion of CBHI in these conditions are summarised in the Table 1. The average synthesis time of full-length CBHI was not affected in the DTT and BFA treated cultures, being in accordance with the result that total protein synthesis is not affected by these treatments (see above).

T. reesei Rut-C30 [3] = experiment: Northern analysis of transcript levels in treated T. reesei cultures; conditions: for Expression of the short form of hac1 mRNA: normalised with total hac1 signal
Method: T. reesei strain Rut-C30 (Montenecourt & Eveleigh, 1979) was cultivated on minimal medium ((H4)2SO4 7.6 g l^−1, KH2PO4 15.0 g l^−1, MgSO4.7H2O 0.5 g l^−1, CaCl2.H2O 0.2 g l^−1, CoCl2 3.7 mg l^−1, FeSO4.7H2O 5 mg l^−1, ZnSO4.7H2O 1.4 mg l^−1, MnSO4.7H2O 1.6 mg l^−1, pH adjusted to 5.2 with KOH) that contained lactose 20 g l^−1 as a carbon source. Spore suspension with 2×10^7 spores (stored in −80° C. in 20% glycerol) was inoculated into 200 ml of the medium, grown in shake flasks at 28° C. with shaking at 210 rpm. After 4 days of cultivation the cultures were diluted 1/10 into fresh medium, grown further for 24 h, and treated either with 10 mM dithiothreitol (DTT), 50 μg/ml brefeldin A (BFA) or 5 μM Ca^2+-ionophore A23187. A corresponding volume of the solvent of the stock solution was added into the untreated control cultures (0.2% and 0.5% DMSO for the control cultures for A23187 and BFA treatment, respectively, and double distilled water for the control for DTT treatment).
For the Northern analysis mycelial samples were collected from cultures treated with DTT, BFA or A23187 and from the untreated control cultures after 0, 15, 30, 60, 90, 120, 240 and 360 minutes of the treatment. The first sample (the time point 0 min was withdrawn immediately before addition of DTT, BFA or A23187). The mycelium was filtered, washed with equal volume of 0.7% NaCl, frozen immediately in liquid nitrogen, and stored at −80° C. Total RNA was isolated using the Trizol™ Reagent (Gibco BRL) essentially according to manufacturer's instructions. Northern blotting and hybridisation was carried out according to standard procedures (Sambrook et al). Full-length cDNA of the genes were used as probes.
Northern analysis of the samples collected during the treatment with A23187, DTT or BFA was carried out to study the effect of the treatments at transcriptional level.

A. niger AB4.1 = experiment: Northern analysis of transcript levels in DTT treated A. niger cultures; type: cell-based, Aspergillus niger; conditions: 20 mM DTT
Method: The Aspergillus niger strains used in the experiments were AB4.1 (van Hartingsveldt et al., 1987) and AS1.1 (Ngiam et al., 2000). Spores resuspended in 0.1% Tween 20 (Sigma, UK) were used to inoculate liquid cultures to a final density of 1×10^5 spores per ml of medium. The strains were maintained on potato dextrose agar slopes (Difco, USA) with a supplement of 10 mM uridine for A. niger AB4.1. Slopes were grown at 30° C. until they had sporulated and made fresh for each experiment. ACMS/N/P medium (Archer et al., 1990) was used for all the experiments involving liquid culture. A. niger AB4.1 cultures were again supplemented with 10 mM uridine. Cultures were grown in 100 ml aliquots of medium in 250 ml conical flasks at 25° C. and 150 rpm. In the DTT stress experiments, AB4.1 cultures were grown for 44 hours before addition of 1 ml of 2M DTT solution to give a final concentration of 20 mM. […]
Total RNA was extracted from 100 mg of freeze dried, ground mycelia using the RNeasy Plant Mini Kit (Qiagen, UK) according to the manufacturer's instructions. RNA was quantified by reading absorbances at 230, 260 and 280 nm on a Uvikon 850 spectrophotometer (Kontron Instruments, UK). Ratios of over 2.0 for the 260 nm:280 nm readings were accepted as being indicative of good quality RNA. RNA quality was also assessed by running samples on 7% formaldehyde gels (Sambrook et al., 1989). […]

[4] = 5 μM A23187, 50 μg/ml BFA or 10 mM DTT

SMILES	Total protein synthesis rate (T. reesei Rut-C30 [1]; TCA insoluble radioactivity in cell extracts)	Total protein secretion rate (T. reesei Rut-C30 [1])	Delay of formation of the full pI pattern of CBHI compared to the control cells (T. reesei Rut-C30 [2]; 5 μM A23187)	Increase of minimum secretion time of CBHI compared to the control cultures (T. reesei Rut-C30 [2]; 5 μM A23187)	Prolongation of synthesis time of CBHI compared to the control cultures (T. reesei Rut-C30 [2]; 5 μM A23187)	CBHI synthesis rate (T. reesei Rut-C30 [2]; [4])	CBHI secretion rate (T. reesei Rut-C30 [2]; [4])	Average time of CBHI synthesis (T. reesei Rut-C30 [2]; untreated cells 5.7 min, 5 μM A23187, 50 μg/ml BFA or 10 mM DTT)	Minimum secretion time of CBHI (T. reesei Rut-C30 [2]; [4])	Expression of the short form of hac1 mRNA (T. reesei Rut-C30 [3])	pdiA and bipA mRNA response (A. niger AB4.1)	Levels of pepA mRNA (A. niger AB4.1; control cultures show an increase)	Expression level of sar1 and ypt1 (T. reesei Rut-C30 [3]; 10 mM DTT)	Transcript level of xyn1 and hfb2 (T. reesei Rut-C30 [3]; 10 mM DTT)
CNc1ccc2oc(C[C@H]3O[C@@]4(CC[C@H]3C)O[C@H]([C@H](C)C(=O)c3ccc[nH]3)[C@H](C)C[C@H]4C)nc2c1C(=O)O [A23187]	51%	23%	15-20 minutes	10 min	3 to 4 min	26%	27%	9 min	21 min	transient and rather weak expression	–	–	–	–
O[C@H](CS)[C@H](O)CS (racemic) [DTT, dithiothreitol]	–	5%	–	–	–	4-24%	no production of labelled CBHI into the culture medium was detected	–	–	expression of the shortened, actively translated form	rapid response	no significant increase	not affected	reduced
C[C@H]1CCC/C=C/[C@@H]2C[C@H](O)C[C@H]2[C@H](O)/C=C/C(=O)O1 [BFA, brefeldin A]	–	5%	–	–	–	52%	4%	–	69 min	expression of the shortened, actively translated form	–	–	–	–

Reference: patent US20040115790A1, “Method for production of secreted proteins in fungi” (priority 2001, published 2004)
